Experimental data from ChEMBL document CHEMBL2440076, “New triarylpyrazoles as broad-spectrum anticancer agents: design, synthesis, and biological evaluation” (Eur J Med Chem, 2013).

Columns and labels:
Assay type in all cases: functional
IGROV-1 = assay: Growth inhibition of human IGROV1 cells assessed as cell growth at 5X10'-5 M after 48 hrs by sulforhodamine B assay; details: IGROV-1, 48 h, read-out: Activity
UACC-62 = assay: Growth inhibition of human UACC62 cells assessed as cell growth at 5X10'-9 M after 48 hrs by sulforhodamine B assay; details: UACC-62, 48 h, read-out: Activity
SF-295 = assay: Growth inhibition of human SF295 cells assessed as cell growth at 5X10'-5 M after 48 hrs by sulforhodamine B assay; details: SF-295, 48 h, read-out: Activity
HCT-15 = assay: Growth inhibition of human HCT15 cells assessed as cell growth at 5X10'-6 M after 48 hrs by sulforhodamine B assay; details: HCT-15, 48 h, read-out: Activity
SNB-19 = assay: Growth inhibition of human SNB19 cells assessed as cell growth at 5X10'-5 M after 48 hrs by sulforhodamine B assay; details: SNB-19, 48 h, read-out: Activity
SK-MEL-2 = assay: Growth inhibition of human SK-MEL-2 cells assessed as cell growth at 5X10'-7 M after 48 hrs by sulforhodamine B assay; details: SK-MEL-2, 48 h, read-out: Activity
U-251 = assay: Growth inhibition of human U251 cells assessed as cell growth at 5X10'-9 M after 48 hrs by sulforhodamine B assay; details: U-251, 48 h, read-out: Activity
COLO 205 = assay: Growth inhibition of human COLO205 cells assessed as cell growth at 5X10'-8 M after 48 hrs by sulforhodamine B assay; details: COLO 205, 48 h, read-out: Activity
SK-MEL-5 = assay: Growth inhibition of human SK-MEL-5 cells assessed as cell growth at 5X10'-6 M after 48 hrs by sulforhodamine B assay; details: SK-MEL-5, 48 h, read-out: Activity
CCRF-CEM [1] = assay: Growth inhibition of human CCRF-CEM cells assessed as cell growth at 5X10'-6 M after 48 hrs by sulforhodamine B assay; details: read-out: Activity
CAKI-1 [2] = assay: Growth inhibition of human CAKI-1 cells assessed as cell growth at 5X10'-5 M after 48 hrs by sulforhodamine B assay; details: CAKI-1, 48 h, read-out: Activity
SW-620 = assay: Growth inhibition of human SW620 cells assessed as cell growth at 5X10'-6 M after 48 hrs by sulforhodamine B assay; details: SW-620, 48 h, read-out: Activity
NCI-H23 = assay: Growth inhibition of human NCI-H23 cells assessed as cell growth at 5X10'-9 M after 48 hrs by sulforhodamine B assay; details: NCI-H23, 48 h, read-out: Activity
MCF7 [3] = assay: Growth inhibition of human MCF7 cells assessed as cell growth at 5X10'-5 M after 48 hrs by sulforhodamine B assay; details: MCF7, 48 h, read-out: Activity
SN12C = assay: Growth inhibition of human SN12C cells assessed as cell growth at 5X10'-7 M after 48 hrs by sulforhodamine B assay; details: read-out: Activity
CAKI-1 [4] = assay: Growth inhibition of human CAKI-1 cells assessed as cell growth at 5X10'-6 M after 48 hrs by sulforhodamine B assay; details: CAKI-1, 48 h, read-out: Activity
BT-549 = assay: Growth inhibition of human BT549 cells assessed as cell growth at 5X10'-9 M after 48 hrs by sulforhodamine B assay; details: BT-549, 48 h, read-out: Activity
M14 = assay: Growth inhibition of human M14 cells assessed as cell growth at 5X10'-5 M after 48 hrs by sulforhodamine B assay; details: M14, 48 h, read-out: Activity
HCT-116 = assay: Growth inhibition of human HCT116 cells assessed as cell growth at 5X10'-9 M after 48 hrs by sulforhodamine B assay; details: HCT-116, 48 h, read-out: Activity
T47D = assay: Growth inhibition of human T47D cells assessed as cell growth at 5X10'-6 M after 48 hrs by sulforhodamine B assay; details: read-out: Activity
SR = assay: Growth inhibition of human SR cells assessed as cell growth at 5X10'-5 M after 48 hrs by sulforhodamine B assay; details: read-out: Activity
PC-3 = assay: Growth inhibition of human PC3 cells assessed as cell growth at 5X10'-7 M after 48 hrs by sulforhodamine B assay; details: PC-3, 48 h, read-out: Activity
SF-539 = assay: Growth inhibition of human SF539 cells assessed as cell growth at 5X10'-6 M after 48 hrs by sulforhodamine B assay; details: SF-539, 48 h, read-out: Activity
OVCAR-3 = assay: Growth inhibition of human OVCAR3 cells assessed as cell growth at 5X10'-7 M after 48 hrs by sulforhodamine B assay; details: OVCAR-3, 48 h, read-out: Activity
HOP-92 = assay: Growth inhibition of human HOP92 cells assessed as cell growth at 5X10'-6 M after 48 hrs by sulforhodamine B assay; details: HOP-92, 48 h, read-out: Activity
OVCAR-5 [5] = assay: Growth inhibition of human OVCAR5 cells assessed as cell growth at 5X10'-6 M after 48 hrs by sulforhodamine B assay; details: OVCAR-5, 48 h, read-out: Activity
NCI-H322M = assay: Growth inhibition of human NCI-H322M cells assessed as cell growth at 5X10'-6 M after 48 hrs by sulforhodamine B assay; details: read-out: Activity
OVCAR-5 [6] = assay: Growth inhibition of human OVCAR5 cells assessed as cell growth at 5X10'-9 M after 48 hrs by sulforhodamine B assay; details: OVCAR-5, 48 h, read-out: Activity
CCRF-CEM [7] = assay: Growth inhibition of human CCRF-CEM cells assessed as cell growth at 5X10'-8 M after 48 hrs by sulforhodamine B assay; details: read-out: Activity
RPMI-8226 = assay: Growth inhibition of human RPMI8226 cells assessed as cell growth at 5X10'-6 M after 48 hrs by sulforhodamine B assay; details: RPMI-8226, 48 h, read-out: Activity
UACC-257 = assay: Growth inhibition of human UACC257 cells assessed as cell growth at 5X10'-9 M after 48 hrs by sulforhodamine B assay; details: UACC-257, 48 h, read-out: Activity
MCF7 [8] = assay: Growth inhibition of human MCF7 cells assessed as cell growth at 5X10'-8 M after 48 hrs by sulforhodamine B assay; details: MCF7, 48 h, read-out: Activity
TK-10 = assay: Growth inhibition of human TK10 cells assessed as cell growth at 5X10'-8 M after 48 hrs by sulforhodamine B assay; details: TK-10, 48 h, read-out: Activity
SK-OV-3 = assay: Growth inhibition of human SKOV3 cells assessed as cell growth at 5X10'-9 M after 48 hrs by sulforhodamine B assay; details: SK-OV-3, 48 h, read-out: Activity
A549 = assay: Growth inhibition of human A549/ATCC cells assessed as cell growth at 5X10'-9 M after 48 hrs by sulforhodamine B assay; details: A549, 48 h, read-out: Activity
RXF 393 = assay: Growth inhibition of human RXF393 cells assessed as cell growth at 5X10'-6 M after 48 hrs by sulforhodamine B assay; details: RXF 393, 48 h, read-out: Activity

Row | SMILES | growth at 50 µM (IGROV-1) [%] | growth at 0.005 µM (UACC-62) [%] | growth at 50 µM (SF-295) [%] | growth at 5 µM (HCT-15) [%] | growth at 50 µM (SNB-19) [%] | growth at 0.5 µM (SK-MEL-2) [%] | growth at 0.005 µM (U-251) [%] | growth at 0.05 µM (COLO 205) [%] | growth at 5 µM (SK-MEL-5) [%] | growth at 5 µM (CCRF-CEM [1]) [%] | growth at 50 µM (CAKI-1 [2]) [%] | growth at 5 µM (SW-620) [%] | growth at 0.005 µM (NCI-H23) [%] | growth at 50 µM (MCF7 [3]) [%] | growth at 0.5 µM (SN12C) [%] | growth at 5 µM (CAKI-1 [4]) [%] | growth at 0.005 µM (BT-549) [%] | growth at 50 µM (M14) [%] | growth at 0.005 µM (HCT-116) [%] | growth at 5 µM (T47D) [%] | other results
1 | COc1cc(-c2nn(-c3cccc(NC(=O)c4cccc(C(F)(F)F)c4)c3)cc2-c2ccncc2)ccc1Cl | 5 | 97 | -26 | 15 | 28 | 91 | 94 | 101 | -38 | 6 | 17 | 30 | 91 | 9 | 92 | 24 | 99 | 12 | 99 | 36 | growth at 50 µM (SR): -2%; growth at 0.5 µM (PC-3): 71%; growth at 5 µM (SF-539): -41%; growth at 0.5 µM (OVCAR-3): 98%; growth at 5 µM (HOP-92): -14%; growth at 5 µM (OVCAR-5 [5]): 46%; growth at 5 µM (NCI-H322M): 52%; growth at 0.005 µM (OVCAR-5 [6]): 95%; growth at 0.05 µM (CCRF-CEM [7]): 98%; growth at 5 µM (RPMI-8226): 12%; growth at 0.005 µM (UACC-257): 105%; growth at 0.05 µM (MCF7 [8]): 90%; growth at 0.05 µM (TK-10): 97%; growth at 0.005 µM (SK-OV-3): 96%; growth at 0.005 µM (A549): 102%; growth at 5 µM (RXF 393): -17%
2 | O=C(Nc1cccc(-n2cc(-c3ccncc3)c(-c3ccc(Cl)c(O)c3)n2)c1)Nc1cc(C(F)(F)F)cc(C(F)(F)F)c1 | -55 | 95 | -76 | -9 | -47 | 101 | 95 | 103 | -94 | 3 | -67 | 1 | 98 | -64 | 72 | -4 | 99 | -86 | 101 | 20 | growth at 50 µM (SR): -8%; growth at 0.5 µM (PC-3): 41%; growth at 5 µM (SF-539): -91%; growth at 0.5 µM (OVCAR-3): 43%; growth at 5 µM (HOP-92): -38%; growth at 5 µM (OVCAR-5 [5]): -54%; growth at 5 µM (NCI-H322M): 3%; growth at 0.005 µM (OVCAR-5 [6]): 96%; growth at 0.05 µM (CCRF-CEM [7]): 92%; growth at 5 µM (RPMI-8226): 4%; growth at 0.005 µM (UACC-257): 94%; growth at 0.05 µM (MCF7 [8]): 85%; growth at 0.05 µM (TK-10): 107%; growth at 0.005 µM (SK-OV-3): 103%; growth at 0.005 µM (A549): 96%; growth at 5 µM (RXF 393): -36%
3 | O=C(Nc1cccc(-n2cc(-c3ccncc3)c(-c3ccc(Cl)c(O)c3)n2)c1)c1ccc(N2CCOCC2)c(C(F)(F)F)c1 | 4 | 98 | -59 | 18 | 16 | 102 | 101 | 102 | 31 | 26 | -15 | 2 | 93 | 12 | 97 | 34 | 100 | -50 | 99 | 84 | growth at 50 µM (SR): 8%; growth at 0.5 µM (PC-3): 85%; growth at 5 µM (SF-539): 21%; growth at 0.5 µM (OVCAR-3): 106%; growth at 5 µM (HOP-92): -7%; growth at 5 µM (OVCAR-5 [5]): 111%; growth at 5 µM (NCI-H322M): 76%; growth at 0.005 µM (OVCAR-5 [6]): 98%; growth at 0.05 µM (CCRF-CEM [7]): 100%; growth at 5 µM (RPMI-8226): 9%; growth at 0.005 µM (UACC-257): 100%; growth at 0.05 µM (MCF7 [8]): 85%; growth at 0.05 µM (TK-10): 92%; growth at 0.005 µM (SK-OV-3): 95%; growth at 0.005 µM (A549): 102%; growth at 5 µM (RXF 393): -18%
